Several values for one entry are separate records, joined by “and”; a condition that tells them apart may be missing. Identical values can stand only once.
Assays:
[1] = molecular target: T1, Caspase-1 (Homo sapiens, UniProt P29466); experiment: Purified protease assay, fluorescence (Caspase-1); type: biochemical
T1 sequence (P29466 120-297 limits assumed): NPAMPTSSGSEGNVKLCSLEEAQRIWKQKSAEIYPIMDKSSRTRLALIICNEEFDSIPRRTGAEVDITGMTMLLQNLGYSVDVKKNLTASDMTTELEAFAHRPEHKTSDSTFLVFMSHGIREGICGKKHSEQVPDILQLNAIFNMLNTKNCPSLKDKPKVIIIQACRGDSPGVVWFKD
T1 sequence (P29466 317-404 limits assumed): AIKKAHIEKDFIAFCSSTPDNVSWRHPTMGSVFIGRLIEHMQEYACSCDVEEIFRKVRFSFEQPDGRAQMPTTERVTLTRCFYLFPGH
Source text: (§1) . Product was quantified by fluorescence (n=2) (FIG. 19). Ac-YVAD-CHO and GM-6001 served as positive controls and were used at empirically determined IC50 concentrations.

[2] = tested on: primary human monocytes; experiment: IL-1β secretion and IL-1β species in LPS-induced primary human monocytes (ELISA, western blotting); type: cell-based
Description: Culture supernatants were analyzed for cytokine levels by ELISA (FIG. 16). […] Cell lysates were also analyzed for levels of IL-1β species by western blotting (FIG. 20).
Cells were treated with 1 mM ATP for 10 minutes. Culture supernatants were analyzed for IL-1β by ELISA (FIG. 18).

[3] = molecular target: TNFα converting enzyme (TACE) (Homo sapiens, UniProt P78536); experiment: Purified protease assay, fluorescence (TACE); type: biochemical
Source text: as §1

[4] = tested on: oxazolone-induced topical inflammatory model in BALB/c mice; experiment: Oxazolone-induced topical inflammatory model (ear swelling); type: in vivo
Description: To this end, we utilized two mouse models of allergic contact dermatitis, which are schematically illustrated in FIG. 12. […] Afterwards, the difference in the thickness of each of the two ears was compared to measure the extent of swelling (ie. inflammation).
As a further test, vehicle or the indicated compounds were administered topically in 40 μl doses 30 minutes before and 15 minutes after a second challenge (25 μl/ear of 1% oxazolone in acetone) (n=6). Ear thickness was measured 24 hours after the second challenge with a Dyer model micrometer gauge.

[5] = tested on: arachidonic acid-induced topical inflammatory model in BALE/c mice; experiment: Arachidonic acid-induced topical inflammatory model (ear swelling); type: in vivo

Sequence of TNFα converting enzyme (TACE) (P78536 215-824, species assumed): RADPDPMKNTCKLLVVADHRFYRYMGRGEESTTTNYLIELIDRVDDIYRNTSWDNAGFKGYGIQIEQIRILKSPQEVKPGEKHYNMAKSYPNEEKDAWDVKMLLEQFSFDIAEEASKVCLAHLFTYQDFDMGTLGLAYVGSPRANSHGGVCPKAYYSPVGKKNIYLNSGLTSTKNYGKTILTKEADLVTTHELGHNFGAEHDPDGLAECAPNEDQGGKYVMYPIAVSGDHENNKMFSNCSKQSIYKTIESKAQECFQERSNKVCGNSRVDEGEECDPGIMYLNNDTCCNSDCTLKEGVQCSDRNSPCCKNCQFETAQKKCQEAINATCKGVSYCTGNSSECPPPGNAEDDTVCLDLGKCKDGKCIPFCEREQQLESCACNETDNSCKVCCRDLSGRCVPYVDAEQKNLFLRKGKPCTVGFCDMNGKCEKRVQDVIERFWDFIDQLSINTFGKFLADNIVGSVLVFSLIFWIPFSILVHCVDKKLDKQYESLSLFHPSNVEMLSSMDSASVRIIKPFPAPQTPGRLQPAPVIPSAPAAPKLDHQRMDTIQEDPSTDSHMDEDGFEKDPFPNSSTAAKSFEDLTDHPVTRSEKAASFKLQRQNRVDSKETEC

How did the IC50 ([1]; positive control, read-out: empirically determined IC50 concentration, Caspase-1) turn out when `CC(=O)N[C@@H](Cc1ccc(O)cc1)C(=O)N[C@H](C(=O)N[C@@H](C)C(=O)N[C@H](C=O)CC(=O)O)C(C)C` [Ac-YVAD-CHO, reference compound] was run?
Its IC50 is 20 nM.

How did the “pro-IL-1β levels in cell lysates, of control levels (densitometry)” value ([2]; 2 μM lane) turn out when `COc1ccc(Cn2ccc3ccc(C(=O)NO)cc32)cc1` [Compound 23, 1-(4-methoxy-phenylmethyl)-1H-indole-6-carboxylic acid hydroxyamide] was run?
The value was 153%.

What about the “pro-IL-1β levels in cell lysates, of control levels (densitometry)” value ([2]; 10 μM lane) of the same compound?
Its value is 142%.

What about the “direct inhibition of Caspase-1 protease” value ([1]; 10 μM) of the same compound?
The value was “does not Directly Inhibit”.

And the “direct inhibition of TACE protease” value ([3]; 10 μM)?
Its value is “does not Directly Inhibit”.

What about the “Ear Thickness Net” value ([4]; 1 mg/ear × 2, topical) of the same compound?
The value was 12.5 ± 1.8 0.01 mm.

What about the “Ear Thickness Net” value ([4]; 3 mg/ear × 2, topical) of the same compound?
Its value is 7.3 ± 0.3 0.01 mm.

What about the “arachidonic acid-induced inflammation (in words)” value ([5]; 1 mg) of the same compound?
The value was “reduced arachidonic acid-induced inflammation”.

And the “Ear thickness L. Ear, mean (X)” value ([5]; TOP, 1 mg/ear × 2)?
The value was 20.0 ×0.01 mm.

What about the “Ear thickness Net, mean (X)” value ([5]; TOP, 1 mg/ear × 2) of the same compound?
The value was 9.7 ×0.01 mm.

And the “Ear thickness R. Ear, mean (X)” value ([5]; TOP, 1 mg/ear × 2)?
Its value is 29.7 ×0.01 mm.

And the “Ear thickness L. Ear, individual animals” value ([5]; TOP, 1 mg/ear × 2, N 1-6)?
The value was 20 ×0.01 mm (4×) and 21 ×0.01 mm and 19 ×0.01 mm.

What about the “Ear thickness Net, individual animals” value ([5]; TOP, 1 mg/ear × 2, N 1-6) of the same compound?
Its value is 9 ×0.01 mm (3×) and 11 ×0.01 mm and 8 ×0.01 mm and 12 ×0.01 mm.

What about the “Ear thickness R. Ear, individual animals” value ([5]; TOP, 1 mg/ear × 2, N 1-6) of the same compound?
Its value is 29 ×0.01 mm (2×) and 32 ×0.01 mm (2×) and 28 ×0.01 mm (2×).

What about the “Ear thickness L. Ear, mean (X)” value ([5]; TOP, 3 mg/ear × 2) of the same compound?
The value was 20.5 ×0.01 mm.

What about the “Ear thickness Net, mean (X)” value ([5]; TOP, 3 mg/ear × 2) of the same compound?
Its value is 10.3 ×0.01 mm.

And the “Ear thickness R. Ear, mean (X)” value ([5]; TOP, 3 mg/ear × 2)?
The value was 30.8 ×0.01 mm.

What about the “Ear thickness L. Ear, individual animals” value ([5]; TOP, 3 mg/ear × 2, N 1-6) of the same compound?
The value was 21 ×0.01 mm (4×) and 19 ×0.01 mm and 20 ×0.01 mm.

And the “Ear thickness Net, individual animals” value ([5]; TOP, 3 mg/ear × 2, N 1-6)?
The value was 6 ×0.01 mm (2×) and 11 ×0.01 mm and 16 ×0.01 mm (2×) and 7 ×0.01 mm.

And the “Ear thickness R. Ear, individual animals” value ([5]; TOP, 3 mg/ear × 2, N 1-6)?
Its value is 27 ×0.01 mm (2×) and 32 ×0.01 mm and 35 ×0.01 mm and 36 ×0.01 mm and 28 ×0.01 mm.

How did the IC50 [3] turn out when `CNC(=O)[C@H](Cc1c[nH]c2ccccc12)NC(=O)[C@@H](CC(=O)NO)CC(C)C` [GM-6001, reference compound] was run?
Its IC50 is 60 nM.

`COc1ccc2c(c1)c(CC(=O)O)c(C)n2C(=O)c1ccc(Cl)cc1` [Indomethacin, reference compound] was tested. Which “Ear Thickness Net” value ([4]; 0.3 mg/ear × 2, topical) did it give?
The value was 9.7 ± 1.0 0.01 mm.

And the “% Inhibition” value ([4]; 0.3 mg/ear × 2, topical, relative to vehicle-treated control, ≧30% considered significant)?
Its value is “(40) %”.

What about the “% Inhibition” value ([5]; TOP, 3 mg/ear × 2) of the same compound?
Its value is “(62) %”.

And the “Ear thickness L. Ear, mean (X)” value ([5]; TOP, 3 mg/ear × 2)?
Its value is 20.2 ×0.01 mm.

And the “Ear thickness Net, mean (X)” value ([5]; TOP, 3 mg/ear × 2)?
Its value is 5.5 ×0.01 mm.

And the “Ear thickness R. Ear, mean (X)” value ([5]; TOP, 3 mg/ear × 2)?
The value was 25.7 ×0.01 mm.

And the “Ear thickness L. Ear, individual animals” value ([5]; TOP, 3 mg/ear × 2, N 1-6)?
Its value is 19 ×0.01 mm and 21 ×0.01 mm (2×) and 20 ×0.01 mm (3×).

What about the “Ear thickness Net, individual animals” value ([5]; TOP, 3 mg/ear × 2, N 1-6) of the same compound?
Its value is 7 ×0.01 mm and 4 ×0.01 mm and 6 ×0.01 mm (2×) and 5 ×0.01 mm (2×).

What about the “Ear thickness R. Ear, individual animals” value ([5]; TOP, 3 mg/ear × 2, N 1-6) of the same compound?
Its value is 26 ×0.01 mm (4×) and 25 ×0.01 mm (2×).

Source: patent US20110150825A1, “USES OF SELECTIVE INHIBITORS OF HDAC8 FOR TREATMENT OF INFLAMMATORY CONDITIONS” (PHARMACYCLICS, INC., priority 2006, published 2011)
